The source made the active and inactive calls. The calls are words filed in the database; no cut-off is given here.
Experiments:
[1] = target: T1, Sodium- and chloride-dependent glycine transporter 2 (Homo sapiens, UniProt Q9Y345); assay: Inhibition of GlyT2 (unknown origin) assessed as [14C]-glycine transport
T1 sequence (Q9Y345 whole entry): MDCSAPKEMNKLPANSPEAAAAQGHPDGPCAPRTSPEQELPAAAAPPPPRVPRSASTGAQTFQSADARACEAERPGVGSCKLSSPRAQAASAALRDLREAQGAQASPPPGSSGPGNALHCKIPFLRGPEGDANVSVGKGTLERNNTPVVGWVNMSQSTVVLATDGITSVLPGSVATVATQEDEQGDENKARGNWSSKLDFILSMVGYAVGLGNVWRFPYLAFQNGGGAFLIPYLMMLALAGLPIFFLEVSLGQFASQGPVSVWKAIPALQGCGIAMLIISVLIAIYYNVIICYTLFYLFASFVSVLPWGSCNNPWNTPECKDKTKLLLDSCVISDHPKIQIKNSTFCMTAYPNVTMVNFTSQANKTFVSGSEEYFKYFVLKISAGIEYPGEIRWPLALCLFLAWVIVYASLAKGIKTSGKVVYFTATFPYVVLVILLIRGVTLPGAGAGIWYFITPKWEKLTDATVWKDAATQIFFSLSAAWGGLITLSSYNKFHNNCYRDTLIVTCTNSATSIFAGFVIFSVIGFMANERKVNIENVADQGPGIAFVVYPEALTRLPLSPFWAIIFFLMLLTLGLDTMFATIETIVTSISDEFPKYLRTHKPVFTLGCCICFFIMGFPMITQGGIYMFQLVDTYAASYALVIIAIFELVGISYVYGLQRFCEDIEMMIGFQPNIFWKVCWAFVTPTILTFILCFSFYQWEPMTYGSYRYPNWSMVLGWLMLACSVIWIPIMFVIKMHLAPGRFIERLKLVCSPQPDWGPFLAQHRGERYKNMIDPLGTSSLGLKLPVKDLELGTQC

[2] = Fraction unbound in rat; assay type: ADME; conditions: in vitro
[3] = target: T2, Sodium- and chloride-dependent glycine transporter 1 (Homo sapiens) (UniProt P48067); assay: Competitive inhibition of GlyT1 (unknown origin) assessed as [14C]-glycine transport by Eadie-Hoffstee plot analysis
T2 sequence (whole entry): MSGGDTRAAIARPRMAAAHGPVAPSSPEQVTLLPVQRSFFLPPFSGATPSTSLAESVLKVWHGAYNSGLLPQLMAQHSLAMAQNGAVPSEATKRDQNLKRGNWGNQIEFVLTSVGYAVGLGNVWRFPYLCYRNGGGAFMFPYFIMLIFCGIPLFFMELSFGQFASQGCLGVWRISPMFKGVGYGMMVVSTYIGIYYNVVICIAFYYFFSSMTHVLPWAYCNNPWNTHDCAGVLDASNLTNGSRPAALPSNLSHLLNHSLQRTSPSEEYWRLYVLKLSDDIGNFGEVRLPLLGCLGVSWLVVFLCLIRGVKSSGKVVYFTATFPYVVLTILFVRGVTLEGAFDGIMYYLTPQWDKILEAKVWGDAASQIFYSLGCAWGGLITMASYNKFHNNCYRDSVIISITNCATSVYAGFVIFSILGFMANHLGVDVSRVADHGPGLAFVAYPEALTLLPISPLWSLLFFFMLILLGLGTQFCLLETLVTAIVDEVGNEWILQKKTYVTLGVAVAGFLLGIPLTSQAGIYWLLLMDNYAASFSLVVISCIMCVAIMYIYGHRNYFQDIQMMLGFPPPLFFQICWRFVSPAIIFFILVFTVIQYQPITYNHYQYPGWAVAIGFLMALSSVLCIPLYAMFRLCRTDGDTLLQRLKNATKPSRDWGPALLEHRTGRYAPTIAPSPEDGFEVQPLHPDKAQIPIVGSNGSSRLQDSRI

[4] = Metabolic stability in rat liver microsomes assessed as compound remaining after 90 mins; assay type: ADME; conditions: read-out: Stability
[5] = Inhibition of CYP450 (unknown origin); assay type: ADME, Homo sapiens
[6] = target: T3, Sodium- and chloride-dependent glycine transporter 1 (Homo sapiens, UniProt P48067); assay: Inhibition of GlyT1 (unknown origin) assessed as [14C]-glycine transport
T3 sequence (P48067 whole entry): T2 sequence (whole entry)

Structure (SMILES) | IC50 [1] [µM] | competitive inhibition (active/inactive) [3] | IC50 [6] [µM] | further results
Cn1cnc(S(=O)(=O)N2CC3CCC(NC(=O)c4c(F)cccc4F)C3C2)c1 (racemic) | > 30 |  |  | 
Cn1cnc(S(=O)(=O)N2CC(C(NC(=O)c3ccc(Cl)cc3Cl)c3ccccn3)C2)c1 (racemic) |  | Active |  | Fu [2]: 14%; remaining at 1.5 h [4]: 75%; IC50 [5]: > 10 µM
CCS(=O)(=O)N1CC2CCC(NC(=O)c3ccc(Cl)cc3Cl)C2C1 (racemic) | > 30 |  | > 10 | 
CCCS(=O)(=O)N1CC2CCC(NC(=O)c3ccc(Cl)cc3Cl)C2C1 (racemic) | > 30 |  | > 10 | 
CCCCS(=O)(=O)N1CC2CCC(NC(=O)c3ccc(Cl)cc3Cl)C2C1 (racemic) | > 30 |  | > 10 | 
O=C(NC1CCC2CN(S(=O)(=O)c3ccccc3)CC21)c1ccc(Cl)cc1Cl (racemic) | > 30 |  | > 10 | 
O=C(NC1CCC2CN(S(=O)(=O)c3ccccn3)CC21)c1ccc(Cl)cc1Cl (racemic) | > 30 |  | > 10 | 
O=C(NC1CCC2CN(S(=O)(=O)c3cccs3)CC21)c1ccc(Cl)cc1Cl (racemic) | > 30 |  | > 10 | 
Cn1cnc(S(=O)(=O)N2CC3CCC(NC(=O)c4ccc(Cl)cc4Cl)C3C2)c1 (racemic) | > 30 |  |  | Fu [2]: 8.1%; remaining at 1.5 h [4]: 30%; IC50 [5]: > 10 µM
Cn1cc(S(=O)(=O)N2CC3CCC(NC(=O)c4ccc(Cl)cc4Cl)C3C2)nn1 (racemic) | > 30 |  | 0.015 | 
Cn1cnc(S(=O)(=O)N2CC3CCC(NC(=O)c4ccccc4C(F)(F)F)C3C2)c1 (racemic) | > 30 | Active | 0.112 | 
Cn1cnc(S(=O)(=O)N2CC3CCC(NC(=O)c4ccccc4Cl)C3C2)c1 (racemic) | > 30 |  | 0.115 | 
Cn1cnc(S(=O)(=O)N2CC3CCC(NC(=O)c4ccc(F)cc4F)C3C2)c1 (racemic) | > 30 |  |  | 
Cn1cnc(S(=O)(=O)N2CC3CCC(NC(=O)c4ccccc4F)C3C2)c1 (racemic) | > 30 |  |  | 
Cn1cnc(S(=O)(=O)N2CC3CCC(NC(=O)c4cccc(F)c4)C3C2)c1 (racemic) | > 30 |  | > 10 | 
Cn1cnc(S(=O)(=O)N2CC3CCC(NC(=O)c4ccc(F)cc4)C3C2)c1 (racemic) | > 30 |  |  | 
Cn1cnc(S(=O)(=O)N2CC3CCC(NC(=O)c4ccc(F)c(F)c4)C3C2)c1 (racemic) | > 30 |  | 1.57 | 
Cn1cnc(S(=O)(=O)N2CC3CCC(NC(=O)c4ccc(Cl)cc4)C3C2)c1 (racemic) | > 30 |  |  | 
Cn1cnc(S(=O)(=O)N2CC3CCC(NC(=O)c4ccc(Cl)c(Cl)c4)C3C2)c1 (racemic) | > 30 |  |  | 
Cn1cnc(S(=O)(=O)N2CC3CCC(NC(=O)C4CCCCC4)C3C2)c1 (racemic) | > 30 |  |  | 
CCCS(=O)(=O)N1CC(C(NC(=O)c2ccc(Cl)cc2Cl)c2ccccc2)C1 (racemic) |  | Active |  | 
CCCS(=O)(=O)N1CCC(C(NC(=O)c2ccc(Cl)cc2Cl)c2ccccc2)CC1 (racemic) |  | Active |  | 
Cn1cnc(S(=O)(=O)N2CC(C(NC(=O)c3ccc(Cl)cc3Cl)c3ccccc3)C2)c1 (racemic) |  | Active |  | 
Cn1cnc(S(=O)(=O)N2CC(C(NC(=O)c3ccc(Cl)cc3Cl)c3cccs3)C2)c1 (racemic) |  | Active |  | 
Cn1cnc(S(=O)(=O)N2CCC(C(NC(=O)c3ccc(Cl)cc3Cl)c3ccccc3)CC2)c1 (racemic) |  | Active |  | 
Cn1cnc(S(=O)(=O)N2CCC(C(NC(=O)c3ccc(Cl)cc3Cl)c3ccccn3)CC2)c1 (racemic) |  | Active |  | 
Cn1cnc(S(=O)(=O)N2CCC(C(NC(=O)c3ccc(Cl)cc3Cl)c3cccs3)CC2)c1 (racemic) |  | Active |  | 
